Measured values taken from patent US7902371B2, “(1S,5S)-3-(5,6-dichloropyridin-3-yl)-3,6-diazabicyclo[3.2.0]heptane benzenesulfonate” (Abbott Laboratories, priority 2004, dated 2011).

What was measured:
Format in all cases: physicochemical
[1] = thermodynamic based polymorph screen; settings: for new crystal forms / polymorphs detected: besylate suspended in different solvents, three months
Procedure: A thermodynamic based polymorph screen was conducted with crystalline (1S,5S)-3-(5,6-dichloropyridin-3-yl)-3,6-diazabicyclo[3.2.0]heptane benzenesulfonate. The benzenesulfonate salt was suspended in different solvents including water, ethanol, acetonitrile, methanol, N,N-dimethylformamide, ethyl acetate, 1,4-dioxane, chloroform, pyridine, nitromethane, PEG 400 and […] water/methanol. […] This difference between the benzenesulfonate and 4-methylbenzenesulfonate salts is unexpected considering the structural similarities of the two acids. The lack of different physical forms is an advantage to chemical and physical processing operations.

[2] = hygroscopicity (relative humidity adsorption/desorption isotherms); settings: relative to acetate, citrate, maleate, methanesulfonate, 4-methylbenzenesulfonate and sulfate salts, FIGS. 1-7
Procedure: Relative humidity isotherms were collected using a VTI SGA-100 Symmetric Vapor Sorption Analyzer. About 2 to 30 mg of sample is added to the system. The relative humidity is held constant at each step until a constant weight equilibrium is achieved or a maximum of six hours per step.

[3] = solid state stability at 40° C. in the dark at 75% relative humidity; settings: 75% RH
Procedure: Crystalline (1S,5S)-3-(5,6-dichloropyridin-3-yl)-3,6-diazabicyclo[3.2.0]heptane benzenesulfonate was tested for solid state stability at 40° C. in the dark at 75% relative humidity.

[4] = intrinsic dissolution rate at 37° C.

## Clc1cc(N2C[C@@H]3CN[C@@H]3C2)cnc1Cl.O=S(=O)(O)O [sulfate, (1S,5S)-3-(5,6-dichloropyridin-3-yl)-3,6-diazabicyclo[3.2.0]heptane sulfate]
[1]
  new crystal forms / polymorphs detected: multiple polymorphs were discovered

## O=C(O)[C@H](O)[C@@H](O)C(=O)O [(L)-tartrate]
[1]
  new crystal forms / polymorphs detected: multiple polymorphs were discovered

## Cc1ccc(S(=O)(=O)O)cc1.Clc1cc(N2C[C@@H]3CN[C@@H]3C2)cnc1Cl [4-methylbenzenesulfonate salt, (1S,5S)-3-(5,6-dichloropyridin-3-yl)-3,6-diazabicyclo[3.2.0]heptane 4-methylbenzenesulfonate]
[1]
  unique crystal forms isolated/characterized: three unique crystal forms
  new crystal forms / polymorphs detected: multiple polymorphs were discovered

## Clc1cc(N2C[C@@H]3CN[C@@H]3C2)cnc1Cl.O=S(=O)(O)c1ccccc1 [(1S,5S)-3-(5,6-dichloropyridin-3-yl)-3,6-diazabicyclo[3.2.0]heptane Benzenesulfonate]
[2]
  hygroscopicity: lower hygroscopicity relative to other salts
[3]; 0 week
  % remaining: 99.72 ± 0.56%
[3]; 1 week
  % remaining: 100.66 ± 0.51%
[3]; 2 week
  % remaining: 99.47 ± 1.72%
[3]; 4 week
  % remaining: 100.22 ± 0.59%
[3]; 6 week
  % remaining: 100.53 ± 0.20%
[3]; 8 week
  % remaining: 100.93 ± 0.37%
[3]; 12 week
  % remaining: 100.84 ± 0.47%
[4]; pH 1.0
  intrinsic dissolution rate: 8.5 mg/min·cm^2
[4]; pH 6.8
  intrinsic dissolution rate: 10.1 mg/min·cm^2
[1]
  unique crystal forms isolated/characterized: only one
  new crystal forms / polymorphs detected: No new crystal forms were detected
